Assay results taken from article PMC12302426, “Dihydrokoumine, a dual-target analgesic with reduced side effects isolated from a traditional Chinese medicine” (Journal of Advanced Research, 2024).

What was measured:
C57BL/6 male mice = experiment: Rotarod test (motor coordination, sedation); format: in vivo; details: DK 20, 40 mg/kg i.p., one hour before testing
Protocol: Motor coordination were evaluated by the rotarod test, which was conducted as previously reported. Six-week-old C57BL/6 male mice were used in […] (n = 6). Mice underwent a three-day training period, twice daily (9:00 am and 3:00 pm), to make them stay balanced on the rotarod apparatus (Columbus), with a 3 cm diameter and rotating at a constant 11 rpm. Motor coordination was evaluated through mice's endurance on the rotating rod. Selection criteria included mice maintaining balance for 60–120 s. On the fourth day, mice were intraperitoneally injected (5 mL/kg) with a solvent mixture, morphine (5 mg/kg), or DK (20, 40 mg/kg) one hour before testing. Latency to fall (in seconds) was recorded after placing mice on the rotarod, with a 120-second cut-off time.

MOR = target: T1, MOR (Homo sapiens, UniProt P35372); experiment: Radioligand binding assay, [3H] DAMGO; details: [3H] DAMGO 0.5 nM
T1 construct: expressed in transfected cells; host or cells: HEK293 cell membranes
Protocol: Radioligand binding assays were conducted using MicroBeta2 (PerkinElmer, USA). Membrane protein preparations MOR and M3R were each prepared at a concentration of 2.5 µg/well. The radio ligands [^3H] DAMGO (specific for MOR) and [^3H]-NMS (specific for M3R) were prepared at concentrations of 0.5 nM and 0.2 nM, respectively. […] For each well, 1 µL of the serially diluted test compounds was transferred, followed by the addition of 100 µL of membrane stock solution and 100 µL of radioligand. The plates were sealed and shaken at 300 rpm at room temperature for one hour. Upon completion of the binding assay, the contents of each well were filtered through Unifilter-96 GF/C filter plates (PerkinElmer, USA). The filter plates were dried for one hour at 50°C and sealed. The trapped ^3H (tritium) on the filters was then quantified using the MicroBeta2. The percentage of inhibition or binding was subsequently calculated.

dopamine receptor D1 = target: T2, dopamine receptor D1 (Homo sapiens, UniProt P21728); experiment: DMR desensitization assay, HEK293-D1, probe dopamine; format: cell-based; details: 100 μM DK
T2 construct: expressed in transfected cells; host or cells: HEK293-D1
Protocol: (§1) DMR assays were performed using an Epic® BT system (Corning, NY, USA). All used cell lines were directly seeded in Epic 384-well biosensor microplates with a seeding density of 25,000 cells per well. After being cultured for about 22 h, the cells formed a monolayer with a confluency of about 95 % in the cell culture medium. Then the cells were manually washed using assay buffer (1 × HBSS buffer, 10 mM HEPES, pH = 7.4) and maintained in 30 μL of the assay buffer for 1 h. All samples were dissolved in DMSO and diluted freshly with the assay buffer containing 0.1 % BSA.
(§2) The receptor selectivity was evaluated against a set of G protein-coupled receptors (GPCRs), including opioid receptor (Delta/Kappa/NOP), dopamine receptor (D1/D2), orphan receptor (GPR35), adrenergic receptor (α2A/β2), serotonin receptor (5HT2A), histamine receptor (H1) and cannabinoid receptor (CB1). Following a 1-hour pretreatment with DK, a 2-min baseline was established before introducing probes and monitoring DMR signals for another hour. The cells and probes were as follows: Delta, HEK293-Delta, SNC162; Kappa, HEK293-Kappa, ICI199441; NOP, HEK293-NOP, MCOPPB; D1, HEK293-D1, dopamine; D2, HEK293-D2, dopamine; GPR35, CHO-K1-hGPR35, zaprinast; 5HT2A, HEK293-5HT2A, 5-hydroxytryptamine; α2A, HEK293-α2A, L-Noradrenaline; β2, A431, isoprenaline; H1, A431, histamine; CB1, CHO-K1-CB1, CP 55940. […]

M5R = target: T3, M5R (Homo sapiens, UniProt P08912); experiment: FLIPR assay in CHO-M5 cells (carbachol-induced Ca2+); format: cell-based; details: DK pretreatment one hour
T3 construct: expressed in transfected cells
Protocol: FLIPR assay was carried out as reported earlier. Cell lines were seeded in 96-well plates with black walls (Greiner, USA) at 8.0 × 10^4 cells per well. After approximately 22 h of incubation, the cells were exposed to Calcium-6 dye (Molecular Devices, USA) in HBSS buffer supplemented with 20 mM HEPES (pH 7.4) at 37°C for one hour. Samples, redissolved in DMSO and housed in 96-well drug plates, underwent dilution with FLIPR buffer and subsequent automated introduction to the cells. […] […] Results were presented as fluorescence (arbitrary units) plotted against time.

orphan receptor GPR35 = target: T4, orphan receptor GPR35 (Homo sapiens, UniProt Q9HC97); experiment: DMR desensitization assay, CHO-K1-hGPR35, probe zaprinast; format: cell-based; details: 100 μM DK
T4 construct: expressed in transfected cells; host or cells: CHO-K1-hGPR35
Protocol: as §1, §2

histamine receptor H1 = target: T5, histamine receptor H1 (Homo sapiens, UniProt P35367); experiment: DMR desensitization assay, A431, probe histamine; format: cell-based; details: 100 μM DK
T5 construct: endogenous in cells; host or cells: A431
Protocol: as §1, §2

Kappa opioid receptor = target: T6, Kappa opioid receptor (Homo sapiens, UniProt P41145); experiment: DMR agonist and desensitization assay in HEK293-Kappa cells; format: cell-based
T6 construct: expressed in transfected cells; host or cells: HEK293-Kappa
Protocol: as §1
The DMR assays were conducted as follows. […] In the case of the DMR desensitization assay, cells were pretreated with analytes for one hour before introducing a specific agonist at the indicated concentration, and the agonist-induced DMR signals were monitored for one hour. Finally, for the DMR antagonist assay, cells underwent a 1-hour pretreatment with an antagonist before the addition of a specific agonist at the indicated concentration, and subsequent DMR signals were recorded over one hour.
The receptor selectivity was evaluated against a set of G protein-coupled receptors (GPCRs), including opioid receptor (Delta/Kappa/NOP), dopamine receptor (D1/D2), orphan receptor (GPR35), adrenergic receptor (α2A/β2), serotonin receptor (5HT2A), histamine receptor (H1) and cannabinoid receptor (CB1). Following a 1-hour pretreatment with DK, a 2-min baseline was established before introducing probes and monitoring DMR signals for another hour. The cells and probes were as follows: Delta, HEK293-Delta, SNC162; Kappa, HEK293-Kappa, ICI199441; NOP, HEK293-NOP, MCOPPB; D1, HEK293-D1, dopamine; D2, HEK293-D2, dopamine; GPR35, CHO-K1-hGPR35, zaprinast; 5HT2A, HEK293-5HT2A, 5-hydroxytryptamine; α2A, HEK293-α2A, L-Noradrenaline; β2, A431, isoprenaline; H1, A431, histamine; CB1, CHO-K1-CB1, CP 55940. The other detailed process was the same as above.

T6 sequence (P41145 whole entry): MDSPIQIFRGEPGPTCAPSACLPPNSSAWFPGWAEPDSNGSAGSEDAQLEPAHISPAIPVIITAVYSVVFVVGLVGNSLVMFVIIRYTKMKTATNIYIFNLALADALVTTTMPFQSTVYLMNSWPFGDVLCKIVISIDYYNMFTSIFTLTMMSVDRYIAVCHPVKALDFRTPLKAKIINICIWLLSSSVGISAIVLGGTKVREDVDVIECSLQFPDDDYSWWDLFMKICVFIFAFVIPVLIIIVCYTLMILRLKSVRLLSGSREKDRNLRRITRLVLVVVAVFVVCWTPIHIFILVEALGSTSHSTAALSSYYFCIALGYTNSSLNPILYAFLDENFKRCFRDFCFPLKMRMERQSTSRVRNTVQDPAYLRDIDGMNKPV
T1 sequence (P35372 whole entry): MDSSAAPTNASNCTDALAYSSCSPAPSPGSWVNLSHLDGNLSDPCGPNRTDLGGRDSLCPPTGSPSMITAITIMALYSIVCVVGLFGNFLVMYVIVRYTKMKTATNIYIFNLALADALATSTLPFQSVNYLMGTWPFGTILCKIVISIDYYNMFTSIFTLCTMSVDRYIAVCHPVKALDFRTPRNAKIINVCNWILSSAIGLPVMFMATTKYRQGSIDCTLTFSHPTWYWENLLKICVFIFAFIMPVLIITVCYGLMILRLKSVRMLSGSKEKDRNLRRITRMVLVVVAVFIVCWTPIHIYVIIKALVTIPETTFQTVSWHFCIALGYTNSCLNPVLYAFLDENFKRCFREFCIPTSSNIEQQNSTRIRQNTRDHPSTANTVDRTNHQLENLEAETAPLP
T5 sequence (P35367 whole entry): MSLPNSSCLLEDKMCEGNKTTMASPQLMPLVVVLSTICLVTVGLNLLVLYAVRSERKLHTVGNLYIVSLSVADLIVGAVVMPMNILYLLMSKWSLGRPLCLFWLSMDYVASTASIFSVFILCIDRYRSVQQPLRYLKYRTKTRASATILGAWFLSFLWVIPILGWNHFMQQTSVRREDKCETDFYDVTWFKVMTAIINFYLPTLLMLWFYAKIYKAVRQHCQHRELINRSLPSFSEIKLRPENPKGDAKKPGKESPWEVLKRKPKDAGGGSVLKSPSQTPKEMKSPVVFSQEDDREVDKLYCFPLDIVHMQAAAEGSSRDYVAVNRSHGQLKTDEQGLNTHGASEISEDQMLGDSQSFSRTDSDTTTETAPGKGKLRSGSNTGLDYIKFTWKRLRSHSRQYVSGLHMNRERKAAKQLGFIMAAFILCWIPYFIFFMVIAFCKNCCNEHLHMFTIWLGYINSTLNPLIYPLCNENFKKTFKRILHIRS
T3 sequence (P08912 whole entry): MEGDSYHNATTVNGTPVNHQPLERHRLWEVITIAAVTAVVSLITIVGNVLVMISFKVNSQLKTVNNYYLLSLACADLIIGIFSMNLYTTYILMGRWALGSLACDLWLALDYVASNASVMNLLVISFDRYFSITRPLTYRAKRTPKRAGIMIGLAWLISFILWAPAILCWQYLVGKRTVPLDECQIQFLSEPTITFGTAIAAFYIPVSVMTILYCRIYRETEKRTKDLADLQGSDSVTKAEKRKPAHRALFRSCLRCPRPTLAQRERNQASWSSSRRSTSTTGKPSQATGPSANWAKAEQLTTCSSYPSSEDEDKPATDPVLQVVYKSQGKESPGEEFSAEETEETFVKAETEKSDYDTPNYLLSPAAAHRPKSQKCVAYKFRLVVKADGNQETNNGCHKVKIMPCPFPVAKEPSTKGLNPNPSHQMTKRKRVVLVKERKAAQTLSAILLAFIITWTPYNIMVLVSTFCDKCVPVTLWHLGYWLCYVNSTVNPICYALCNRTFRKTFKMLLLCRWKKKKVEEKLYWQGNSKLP
T4 sequence (Q9HC97 whole entry): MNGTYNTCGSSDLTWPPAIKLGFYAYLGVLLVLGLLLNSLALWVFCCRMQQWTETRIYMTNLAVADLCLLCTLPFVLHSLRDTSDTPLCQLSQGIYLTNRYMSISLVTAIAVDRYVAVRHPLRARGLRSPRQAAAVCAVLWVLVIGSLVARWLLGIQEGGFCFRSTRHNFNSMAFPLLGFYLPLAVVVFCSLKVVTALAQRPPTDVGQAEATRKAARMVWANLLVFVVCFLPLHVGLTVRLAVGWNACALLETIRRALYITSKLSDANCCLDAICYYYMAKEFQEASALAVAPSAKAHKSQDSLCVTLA
T2 sequence (P21728 whole entry): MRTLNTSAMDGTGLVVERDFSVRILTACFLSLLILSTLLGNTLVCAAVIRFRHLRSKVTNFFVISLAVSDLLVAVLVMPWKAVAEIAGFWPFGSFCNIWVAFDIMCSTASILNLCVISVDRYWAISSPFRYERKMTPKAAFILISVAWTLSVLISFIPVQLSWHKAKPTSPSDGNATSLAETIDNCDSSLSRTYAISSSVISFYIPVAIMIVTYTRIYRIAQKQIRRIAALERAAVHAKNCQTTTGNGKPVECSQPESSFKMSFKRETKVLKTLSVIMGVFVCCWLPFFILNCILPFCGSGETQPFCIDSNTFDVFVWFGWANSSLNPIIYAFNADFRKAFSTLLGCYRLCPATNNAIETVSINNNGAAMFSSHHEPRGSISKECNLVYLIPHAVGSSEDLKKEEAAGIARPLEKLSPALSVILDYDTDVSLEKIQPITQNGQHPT

## C=CC12CN(C)C3CC14c1ccccc1NC4C1CC2C3CO1 (stereo not shown) [DK]
C57BL/6 male mice
  sedative effect (locomotion, latency to fall): not a sedative at the tested doses
MOR
  Ki: 85.7 ± 36.1 nM
  efficacy (maximal inhibition of radioligand binding): 100%
Dopamine receptor D1
  reduction of probe DMR response (desensitization): almost unable to reduce the response
M5R
  inhibition of carbachol-induced Ca2+ response: could not concentration-dependently inhibit
Orphan receptor GPR35
  reduction of probe DMR response (desensitization): almost unable to reduce the response
Histamine receptor H1
  reduction of probe DMR response (desensitization): almost unable to reduce the response
Kappa opioid receptor; HEK293-Kappa cells
  DMR agonist response: unable to trigger a concentration-dependent DMR response
Kappa opioid receptor; HEK293-Kappa, 25 nM ICI199441, pretreatment one hour
  probe-induced DMR response after DK pretreatment: had little effect on the DMR response produced by the respective probes
Kappa opioid receptor; HEK293-Kappa, ICI199441, high-concentration of DK
  antagonist effect at high concentration (decrease of probe DMR response): very weak antagonist effects
